# Test results: EPA's ToxRefDB 2
# Key:
# [1] = system: mouse; settings: Subchronic oral toxicity in rodents, b6c3f1, Feed, dose end: 13 week, group: systemic
# [2] = system: mouse; settings: Carcinogenicity, b6c3f1, Oral, [Not Specified], dose end: 104 week, group: systemic
# [3] = system: rat; settings: Subchronic oral toxicity in rodents, fischer, Feed, dose end: 13 week, group: systemic
# [4] = system: dog; settings: Chronic toxicity, beagle, Oral, Capsule, dose end: 52 week, group: systemic
# [5] = system: rat; settings: Multigenerational reproductive toxicity study, other, Oral, Feed, dose end: 2 generation
# [6] = system: rat; settings: Combined chronic toxicity/carcinogenicity; fischer; Oral; Feed; dose end: 104 week; group: systemic; systemic / in life observation / clinical signs / body cold to touch + systemic / in life observation / clinical signs / emaciation + …
# [7] = system: dog; settings: Subchronic oral toxicity in nonrodent, beagle, Capsule, dose end: 13 week, group: systemic, systemic / in life observation / clinical signs / salivation + systemic / pathology microscopic / liver / proliferation
# [8] = system: rat; settings: Carcinogenicity, sprague dawley, Oral, Feed, dose end: 104 week, group: systemic
# [9] = system: dog; settings: Chronic toxicity, beagle, Oral, Feed, dose end: 52 week, group: systemic
# [10] = system: mouse; settings: Carcinogenicity; cd1; Oral; [Not Specified]; dose end: 24 month; group: systemic; systemic / in life observation / body weight / body weight gain
# [11] = system: rat; settings: Subchronic oral toxicity in rodents, sprague dawley, Feed, dose end: 95 day, group: systemic
# [12] = system: dog; settings: Subchronic oral toxicity in nonrodent, beagle, Feed, dose end: 13 week, group: systemic, systemic / clinical chemistry / alkaline phosphatase (alp/alk) / alkaline phosphatase (alp/alk) + systemic / organ weight / prostate / …
# [13] = system: rat; settings: Chronic toxicity; sprague dawley; Oral; Feed; dose end: 104 week; group: systemic; systemic / in life observation / body weight / body weight + systemic / in life observation / body weight / body weight gain + systemic / …
# [14] = system: rabbit; settings: Prenatal developmental toxicity study, new zealand white, Oral, Gavage/Intubation, dose end: 18 GD
# [15] = system: rat; settings: Subchronic dermal toxicity, sprague dawley, Topical, dose end: 91 day, group: systemic
# [16] = system: rat; settings: Prenatal developmental toxicity study, sprague dawley, Oral, Gavage/Intubation, dose end: 15 GD
# [17] = system: rat; settings: Sub-acute dermal toxicity, sprague dawley, Topical, dose end: 21 day, group: systemic
# [18] = system: rabbit; settings: Prenatal developmental toxicity study, new zealand white, Oral, Gavage/Intubation, dose end: 18 GD; remark: listed apart in the source
# [19] = system: rat; settings: Prenatal developmental toxicity study, sprague dawley, Oral, Gavage/Intubation, dose end: 15 GD; remark: listed apart in the source
# [20] = systemic / pathology microscopic / liver / [other]
# [21] = systemic / pathology microscopic / liver / [other] + systemic / in life observation / body weight / body weight + systemic / in life …
# [22] = systemic / pathology microscopic / liver / hematopoietic cell proliferation granulocytic + systemic / pathology gross / liver / accentuated …
# [23] = systemic / clinical chemistry / alkaline phosphatase (alp/alk) / alkaline phosphatase (alp/alk) + systemic / clinical chemistry / gamma …
# [24] = systemic / clinical chemistry / cholesterol / cholesterol
# [25] = systemic / pathology microscopic / liver / [other] + systemic / pathology microscopic / liver / hyperplasia
# [26] = systemic / pathology microscopic / liver / [other] + systemic / pathology microscopic / liver / hyperplasia + systemic / in life observation…
# [27] = group: offspring, systemic / in life observation / body weight / offspring (pup) weight + systemic / in life observation / body weight / offspring (pup) …
# [28] = group: parental, systemic / pathology microscopic / liver / hyperplasia
# [29] = group: parental, systemic / pathology microscopic / liver / hyperplasia + systemic / pathology microscopic / liver / inflammation
# [30] = systemic / in life observation / body weight / body weight + systemic / in life observation / body weight / body weight gain
# [31] = systemic / in life observation / body weight / body weight + systemic / in life observation / body weight / body weight gain + systemic / in…
# [32] = systemic / organ weight / prostate / absolute + systemic / organ weight / prostate / relative to body weight + systemic / clinical chemistry…
# [33] = systemic / pathology microscopic / liver / vacuolization
# [34] = systemic / pathology microscopic / liver / vacuolization + systemic / hematology / erythrocyte (rbc) count differential / erythrocyte (rbc…
# [35] = group: developmental, developmental / developmental malformation / bone / misaligned + systemic / in life observation / body weight / fetal weight + developmental…
# [36] = group: maternal, reproductive / reproductive performance / aborted / aborted + reproductive / reproductive performance / postimplantation loss / …
# [37] = systemic / pathology microscopic / skin / acanthosis + systemic / hematology / blood clotting / blood clotting - prothrombin time + systemic…
# [38] = group: developmental, systemic / in life observation / body weight / fetal weight
# [39] = group: maternal, systemic / in life observation / body weight / body weight + systemic / in life observation / body weight / body weight gain + systemic / in…
# [40] = systemic / in life observation / body weight / body weight gain + systemic / in life observation / clinical signs / desquamation + systemic…
# [41] = systemic / pathology gross / skin / scabbing
# [42] = group: maternal, reproductive / reproductive performance / resorptions / resorptions
# [43] = group: maternal, systemic / in life observation / body weight / body weight gain
compound,measurement,setting,value
COc1cc(OC)nc(Oc2cccc(Oc3nc(OC)cc(OC)n3)c2C(=O)[O-])n1.[Na+] [Bispyribac-sodium],LEL,[1]; [20],699 mg/kg/day
same,LOAEL,[1]; [20],699 mg/kg/day
same,NEL,[1]; [21],68.6 mg/kg/day
same,NOAEL,[1]; [21],68.6 mg/kg/day
same,LOAEL,[2]; systemic / pathology microscopic / liver / hematopoietic cell proliferation granulocytic + systemic / in life observation / body weight / …,353 mg/kg/day
same,LEL,[2]; [22],1.4 mg/kg/day
same,NEL,[2]; [22],< 1.4 mg/kg/day
same,NOAEL,[2]; systemic / pathology microscopic / liver / hematopoietic cell proliferation granulocytic + systemic / pathology microscopic / liver / giant …,14.1 mg/kg/day
same,LOAEL,[3]; [23],724 mg/kg/day
same,NOAEL,[3]; [23],71.9 mg/kg/day
same,LEL,[3]; [24],8.1 mg/kg/day
same,NEL,[3]; [24],< 8.1 mg/kg/day
same,LEL,[4]; [25],100 mg/kg/day
same,LOAEL,[4]; [25],100 mg/kg/day
same,NEL,[4]; [26],10 mg/kg/day
same,NOAEL,[4]; [26],10 mg/kg/day
same,LEL,[5]; [27],759 mg/kg/day
same,LOAEL,[5]; [27],759 mg/kg/day
same,NEL,[5]; [27],75.7 mg/kg/day
same,NOAEL,[5]; [27],75.7 mg/kg/day
same,LEL,[5]; [28],75.7 mg/kg/day
same,LOAEL,[5]; [28],75.7 mg/kg/day
same,NEL,[5]; [29],1.5 mg/kg/day
same,NOAEL,[5]; [29],1.5 mg/kg/day
same,LEL,[6],194 mg/kg/day
same,LOAEL,[6],194 mg/kg/day
same,NEL,[6],10.9 mg/kg/day
same,NOAEL,[6],10.9 mg/kg/day
same,LEL,[7],600 mg/kg/day
same,LOAEL,[7],600 mg/kg/day
same,NEL,[7],100 mg/kg/day
same,NOAEL,[7],100 mg/kg/day
COc1ccc(C(=CC(=O)N2CCOCC2)c2ccc(Cl)cc2)cc1OC [Dimethomorph],LEL,[8]; [30],46.3 mg/kg/day
same,LOAEL,[8]; [30],46.3 mg/kg/day
same,NEL,[8]; [31],11.3 mg/kg/day
same,NOAEL,[8]; [31],11.3 mg/kg/day
same,LOAEL,[9]; systemic / organ weight / prostate / absolute + systemic / organ weight / prostate / relative to body weight,44.6 mg/kg/day
same,LEL,[9]; [32],44.6 mg/kg/day
same,NEL,[9]; [32],14.7 mg/kg/day
same,NOAEL,[9]; [32],14.7 mg/kg/day
same,LEL,[10],977 mg/kg/day
same,LOAEL,[10],977 mg/kg/day
same,NEL,[10],96.8 mg/kg/day
same,NOAEL,[10],96.8 mg/kg/day
same,LEL,[11]; [33],2.9 mg/kg/day
same,NEL,[11]; [33],< 2.9 mg/kg/day
same,LOAEL,[11]; [34],> 73 mg/kg/day
same,NOAEL,[11]; [34],≥ 73 mg/kg/day
same,LEL,[12],43 mg/kg/day
same,LOAEL,[12],43 mg/kg/day
same,NEL,[12],15 mg/kg/day
same,NOAEL,[12],15 mg/kg/day
same,LEL,[13],57.7 mg/kg/day
same,LOAEL,[13],57.7 mg/kg/day
same,NEL,[13],11.9 mg/kg/day
same,NOAEL,[13],11.9 mg/kg/day
CN(C)C(=S)[S-].[K+] [Potassium dimethyldithiocarbamate],LOAEL,"[14]; group: developmental, developmental / developmental malformation / bone / misaligned + systemic / in life observation / body weight / fetal weight",38 mg/kg/day
same,LEL,[14]; [35],38 mg/kg/day
same,NEL,[14]; [35],12.8 mg/kg/day
same,NOAEL,[14]; [35],12.8 mg/kg/day
same,LEL,[14]; [36],38 mg/kg/day
same,LOAEL,[14]; [36],38 mg/kg/day
same,NEL,[14]; [36],12.8 mg/kg/day
same,NOAEL,[14]; [36],12.8 mg/kg/day
same,LOAEL,[15]; systemic / pathology gross / skin / scabbing + systemic / pathology microscopic / skin / acanthosis,350 mg/kg/day
same,NOAEL,[15]; systemic / pathology gross / skin / scabbing + systemic / pathology microscopic / skin / acanthosis + systemic / hematology / blood clotting…,75 mg/kg/day
same,LEL,[15]; [37],75 mg/kg/day
same,NEL,[15]; [37],< 75 mg/kg/day
same,LEL,[16]; [38],400 mg/kg/day
same,LOAEL,[16]; [38],> 400 mg/kg/day
same,NEL,[16]; [38],150 mg/kg/day
same,NOAEL,[16]; [38],≥ 400 mg/kg/day
same,LEL,[16]; [39],150 mg/kg/day
same,LOAEL,[16]; [39],150 mg/kg/day
same,NEL,[16]; [39],25 mg/kg/day
same,NOAEL,[16]; [39],25 mg/kg/day
same,LOAEL,[17]; [40],750 mg/kg/day
same,NOAEL,[17]; [40],500 mg/kg/day
same,LEL,[17]; [41],100 mg/kg/day
same,NEL,[17]; [41],< 100 mg/kg/day
same,LEL,[18]; [38],50 mg/kg/day
same,LOAEL,[18]; [38],150 mg/kg/day
same,NEL,[18]; [38],25 mg/kg/day
same,NOAEL,[18]; [38],50 mg/kg/day
same,LEL,[18]; [42],25 mg/kg/day
same,NEL,[18]; [42],< 25 mg/kg/day
same,NOAEL,"[18]; group: maternal, reproductive / reproductive performance / resorptions / resorptions + systemic / in life observation / body weight / body weight gain + …",50 mg/kg/day
same,LOAEL,[18]; [43],150 mg/kg/day
same,LEL,[19]; [38],600 mg/kg/day
same,LOAEL,[19]; [38],600 mg/kg/day
same,NEL,[19]; [38],400 mg/kg/day
same,NOAEL,[19]; [38],400 mg/kg/day
same,LEL,[19]; [43],100 mg/kg/day
same,NEL,[19]; [43],< 100 mg/kg/day
same,LOAEL,"[19]; group: maternal, systemic / in life observation / body weight / body weight gain + systemic / in life observation / clinical signs / salivation",400 mg/kg/day
same,NOAEL,"[19]; group: maternal, systemic / in life observation / body weight / body weight gain + systemic / in life observation / clinical signs / salivation + …",200 mg/kg/day
